Laboratory results published in publication PMC8878324, “Evaluation of New Antimicrobial Agents Based on tris(1H-Indol-3-yl)methylium Salts: Activity, Toxicity, Suppression of Experimental Sepsis in Mice” (Pharmaceuticals, 2022).
Where two headings read alike, the source gives them in different places.

How the values were obtained:
Assay type in all cases: in vivo
[1] = test system: S. aureus 10; assay: Model of staphylococcal sepsis in mice; settings: for Death (%) / Survival Rate (%): 14 days; for Dead animals/survivors: 3 mg/kg
Method: To determine the ability of drugs to suppress staphylococcal sepsis, a clinical isolate of S. aureus 10, lacking drug resistance and adapted for use in animals, was used. Animals, divided into several experimental groups, were intravenously infected with a lethal dose of S. aureus (0.1 mL each) (Groups 1–5). […] Along with the testing of compounds of the trisndolylmethylium class, a similar experiment was carried out with levofloxacin, taken as a reference drug for a separate group of animals (Group 4). The control group of animals received an intravenous injection of 5% glucose solution instead of the tested preparations (Group 5). Another control group, which also received a single injection of 5% glucose solution, consisted of animals that were not exposed to infection (Group 6). To study each drug, 110–150 animals were required, which were divided into small subgroups of 10 mice each to test various doses of the compounds studied. The number of dead animals and the time of their death were recorded daily, and the appearance of the animals and their weight were assessed. The duration of the experiment was 14 days.
(§1) The study was conducted on adult female SHK mice (18–20 g) obtained from the animal breeding unit of the FMBA (Scientific Center for Biomedical Technologies of the Federal Biomedical Agency, Moscow, Russia). The animals were randomly divided into groups (n = 6 for the study of acute toxicity, n = 10 (or 8) to study the efficacy of suppressing staphylococcal sepsis). The study of the effectiveness of drugs in the treatment of staphylococcal sepsis required the use of 110–175 mice for each drug, 10 animals per group. The animal study was approved by the Ethics of Animal Experimentation of Gause Institute of New Antibiotics (protocol No 13/2019).
The experiment used a strain of S. aureus 10, having no drug resistance and adapted for use in animals. Initially, the 100% lethal dose (LD100) was determined for this pathogen strain in SHK mice, i.e., the dose of the pathogen at which the death of 100% of the animals was recorded. LD100 dose of staphylococcus detected in the experiment was 8.0 × 10^8 CFU/mouse, which was then used for infecting animals.
The chemotherapeutic efficacy of tris(indolyl)methane derivatives was determined in a model of staphylococcal sepsis in mice. Mice of the SHK colony, weighing 18–20 g, were infected intravenously (into the tail vein) with a lethal dose of staphylococcus (0.1 mL of solution). One hour after infection, mice were injected intravenously (0.2 mL of solution each) with the tested tris(indolyl)methane derivatives in the range of doses from 0.1 to 40 mg/kg. For tested drugs, we used solutions prepared in 5% glucose solution. The study of the effectiveness of each drug was conducted on 115–155 mice (10 mice per group). The duration of the experiment was 14 days. The number of dead animals and the time of their death were recorded daily, and the body weight of the animals was recorded three times a week. Their feed intake was monitored, and clinical signs of animal health were assessed daily.
To determine the effectiveness of the tested drugs, 50% effective doses (ED50) were used, which was determined by the Behrens method (frequency accumulation method), as well as by the Litchfield and Wilcoxon method using the StatPlus 2006 software. For all data, the mean and standard deviation were calculated. The differences were defined as significant at p ≤ 0.05.

[2] = test system: SHK mice; assay: Acute toxicity study, intravenous; settings: for LD16 / LD84 / LD100: single intravenous
Method: (§2) In toxicological experiments with each compound, 72 to 108 animals were used and divided into 8 or 9 experimental groups (6 to 12 mice each), in which the animals received various doses of the tested compounds. There was also a control group of animals, which was injected with the corresponding solvent instead of the experimental compound, and a control group of intact animals. The prepared substances were injected into the animals intravenously (into the tail vein); the dose range was from 1.0 to 100 mg/kg.
as §1
(§3) To prepare solutions of preparations suitable for intravenous administration, dried test compounds with a purity of at least 99% were dissolved in a 5% glucose solution for intravenous administration at a concentration of 3.2 or 6.4 mg/mL. The solutions were sterilized by filtration through Sterivex 0.22 μm filters (Millipore, Burlington, MA, USA). Sterile solutions of drugs with a reduced concentration were then prepared, which allowed for the introduction ofvarious doses of drugs with the same volume (0.2 mL) of solutions. The test preparations were stored at a temperature no higher than 25 °C.
(§4) The study of acute toxicity of each drug was conducted on 72 mice (6 mice per group) using a solution of the test drug prepared in 5% glucose solution. The drug was injected into the tail vein of the animals (0.2 mL) using a syringe with a metal needle in a dose range of 1.0 mg/kg to 70 mg/kg.
(§5) From the first day after administration, the animals were under continuous observation. The number of dead animals and the time of their death were recorded daily. The body weight of the animals and their food consumption was recorded once a week, and the clinical signs of the animals’ health were assessed daily. The duration of observation of the animals was at least 30 days after the last death of the animal. Doses characterizing the toxicity of drugs were calculated by the Litchfield and Wilcoxon method using the StatPlus 2006 software AnalystSoft StatPlus—statistical analysis program, version 2006 (http://www.analystsoft.com/, accessed 11 January 2022). The mean and standard deviation were calculated for all data. The differences are defined as significant at p ≤ 0.05.

[3] = Acute toxicity study, intravenous; settings: female, SHK, mouse, in vivo, mice, single intravenous; for MTD: read-out: MTD (LD10)
Method: as §2, §1, §3, §4, §5

[4] = 3 mg/kg i.v., Double administration
[5] = Staphylococcus aureus, 10, iv, 1 h
[6] = single i.v. 3.0 mg/kg 1 h after infection
[7] = single i.v. 5.0 mg/kg 1 h after infection
[8] = single i.v. 7.0 mg/kg 1 h after infection
[9] = single i.v. 9.0 mg/kg 1 h after infection
[10] = single i.v. 11.0 mg/kg 1 h after infection
[11] = single i.v. 13.0 mg/kg 1 h after infection
[12] = single i.v. 0.5 mg/kg 1 h after infection
[13] = single i.v. 1.0 mg/kg 1 h after infection
[14] = single i.v. 1.5 mg/kg 1 h after infection
[15] = single i.v. 1.75 mg/kg 1 h after infection
[16] = single i.v. 2.0 mg/kg 1 h after infection
[17] = single i.v. 4.0 mg/kg 1 h after infection
[18] = single i.v. 6.0 mg/kg 1 h after infection

OCCCCCn1cc([C+](c2cn(CCCCCO)c3ccccc23)c2cn(CCCCCO)c3ccccc23)c2ccccc21.[Cl-] [Compound 1, tris(1-(5-Hydroxypentyl)-1H-indol-3-yl) methylium chloride]
Death (%) [1, 4]: 75%
Survival Rate (%) [1, 4]: 25%
Dead animals/survivors ([1]; Double, day 0): 0/8
Dead animals/survivors ([1]; Double, day 3): 0/8
Dead animals/survivors ([1]; Double, day 4): 1/7
Dead animals/survivors ([1]; Double, day 6): 3/5
Dead animals/survivors ([1]; Double, day 7): 4/4
Dead animals/survivors ([1]; Double, day 8): 4/4
Dead animals/survivors ([1]; Double, day 9): 5/3
Dead animals/survivors ([1]; Double, day 10): 6/2
Dead animals/survivors ([1]; Double, day 12): 6/2
Dead animals/survivors ([1]; Double, day 14): 6/2
Dead animals/survivors ([1]; One-time, day 0): 0/8
Dead animals/survivors ([1]; One-time, day 3): 1/7
Dead animals/survivors ([1]; One-time, day 4): 2/6
Dead animals/survivors ([1]; One-time, day 6): 4/4
Dead animals/survivors ([1]; One-time, day 7): 5/3
Dead animals/survivors ([1]; One-time, day 8): 5/3
Dead animals/survivors ([1]; One-time, day 9): 6/2
Dead animals/survivors ([1]; One-time, day 10): 7/1
Dead animals/survivors ([1]; One-time, day 12): 7/1
Dead animals/survivors ([1]; One-time, day 14): 7/1
Dead animals/survivors ([1]; Three-fold, day 0): 0/8
Dead animals/survivors ([1]; Three-fold, day 3): 0/8
Dead animals/survivors ([1]; Three-fold, day 4): 1/7
Dead animals/survivors ([1]; Three-fold, day 6): 2/6
Dead animals/survivors ([1]; Three-fold, day 7): 3/5
Dead animals/survivors ([1]; Three-fold, day 8): 3/5
Dead animals/survivors ([1]; Three-fold, day 9): 4/4
Dead animals/survivors ([1]; Three-fold, day 10): 5/3
Dead animals/survivors ([1]; Three-fold, day 12): 5/3
Dead animals/survivors ([1]; Three-fold, day 14): 5/3
ED50 [1, 5]: 7.6 mg/kg
survival rate ([1]; dose of 9–11 mg/kg, single i.v.): ~40%
Death (%) [1, 6]: 87.5%
Survival Rate (%) [1, 6]: 12.5%
Death (%) [1, 7]: 75%
Survival Rate (%) [1, 7]: 25%
Death (%) [1, 8]: 75%
Survival Rate (%) [1, 8]: 25%
Death (%) [1, 9]: 62.5%
Survival Rate (%) [1, 9]: 37.5%
Death (%) [1, 10]: 62.5%
Survival Rate (%) [1, 10]: 37.5%
Death (%) [1, 11]: 75%
Survival Rate (%) [1, 11]: 25%
time of death of animals after drug administration ([2]; intravenous, lethal doses): ≤ 15 min
LD16 [2]: 23.4 mg/kg
LD84 [2]: 28.9 mg/kg
LD100 [2]: 30.2 mg/kg
LD50 [3]: 26.2 mg/kg
MTD [3]: 22.6 mg/kg

CCCn1cc([C+](c2cn(CCC)c3ccccc23)c2cn(C3=C(N(C)C)C(=O)NC3=O)c3ccccc23)c2ccccc21 [Compound 3, 1-(4-Dimethylamino-2,5-dioxo-2,5-dihydro-1H-pyrrol-3-yl) -1H-indol-3-yl) bis(1-propyl-1H-indol-3-yl) methylium chloride]
ED50 ([1]; Staphylococcus aureus, 10, single intravenous administration 1 h after infection, read-out: ED50): 1.09 mg/kg
first mortality, day of the experiment ([1]; experimental group 3): 6 to 7 days
last death, day of the experiment ([1]; experimental group 3): 12 days
Death (%) [1, 12]: 70%
Survival Rate (%) [1, 12]: 30%
Death (%) [1, 13]: 50%
Survival Rate (%) [1, 13]: 50%
Death (%) [1, 14]: 40%
Survival Rate (%) [1, 14]: 60%
Death (%) [1, 15]: 10%
Survival Rate (%) [1, 15]: 90%
Death (%) [1, 16]: 0%
Survival Rate (%) [1, 16]: 100%
lethal dose causing the death of more than 50% of the animals ([2]; intravenous): 25 to 40 mg/kg
time of death of animals after administration ([2]; intravenous, in words): during the first day after administration
LD16 [2]: 18.5 mg/kg
LD84 [2]: 29.8 mg/kg
LD100 [2]: 32.6 mg/kg
LD50 [3]: 24.2 mg/kg
MTD [3]: 16.9 mg/kg

C[C@H]1COc2c(N3CCN(C)CC3)c(F)cc3c(=O)c(C(=O)O)cn1c23 [Levofloxacin, levofloxacin, reference compound]
ED50 [1, 5]: 3.5 mg/kg
Death (%) [1, 13]: 90%
Survival Rate (%) [1, 13]: 10%
Death (%) [1, 16]: 60%
Survival Rate (%) [1, 16]: 40%
Death (%) [1, 17]: 40%
Survival Rate (%) [1, 17]: 60%
Death (%) [1, 18]: 30%
Survival Rate (%) [1, 18]: 70%
dose that saved the lives of 50% of infected animals ([1]; single injection): about 4 mg/kg
